From patent US6407122B1, “Amino-benzothiazole derivatives” (Pharmacia & Upjohn S.p.A., priority 1997, dated 2002)

Test system: mixed cortical neuronal cultures
Experiment: Neuroprotection against NMDA (500 μM) toxicity in mixed cortical neuronal cultures, Trypan Blue Dye Exclusion Test
Format: cell-based
Conditions: Rattus norvegicus, Cortical neurone; cultured cortical neurons from foetal rats; 3 min preincubation, 20 min exposure to NMDA 500 μM, viability after 24 hours; mean of at least 3 different experiments; read-out: EC50 (neuroprotective effect)
Method: The efficacy of the compounds of the invention as neuroprotective agents was evaluated in mixed cortical neuronal cultures, following the method reported below.
Mixed cortical neuronal cultures from foetal rats at 16 days of gestation were prepared as described by Choi (j. Neur. Sci. 7: 357-368, 1987). Briefly dissociated cells were plated on poly-L-lysine coated multiwell plates at density of 1*10^5 cells/cm^2 in MEM with Earle's salts supplemented with 21 mM D-glucose, 2 mM L-glutamine, 50 μg/ml Streptomicin, 50 IU Penicillin, 10% Foetal Calf Serum and 10% Horse Serum. Cultures were kept at 37° C., 5% CO2 and survived about 5 weeks. After 7 days in vitro, astrocites proliferation was inhibited by adding 10 μM Cytosine Arabinoside for 48 hours; the medium was subsequently substituted twice a week with a fresh medium without foetal call serum (Hatley, J. Pharm. and Exp. Ther. 250 (II);752-758, 1989).
Only nature cortical cultures, from 14 DIV on, were used for the study. Experiments were performed at 25° C. as follows: cells were washed once with a Locke's buffer, (128 mM NaCl, […], 1.2 mM Na2HPO4, 2.7 mM CaCl2, 20 mM Hepes and 10 mM D-glucose) pH=7.4, then preincubated with the test compounds for 3 min. followed by a 20 min. exposure to N-methyl-D-aspartate (NMDA) (500 μM).
The incubation was stopped by removing Locke's buffer and substituting the conditioned medium. […]

Row | SMILES | EC50
1 | OC(CN1CCC(Cc2ccc(F)cc2)CC1)c1ccc(Cl)cc1 (centres unmarked) [Eliprodil] | 2.26 µM
2 | Nc1nc2ccc(CCN3CCC(Cc4ccccc4)CC3)cc2s1 [Example 15, 1-(2-Amino-benzothiazol-6-yl)-2-(4-benzyl-piperidin-1-yl)-ethane] | 0.64 µM
